# Data taken from patent US20220033432A1, “ANTI-HEPATITIS B VIRUS AGENT” (priority 2019, published 2022).
# pEC50: −log10 of the molar value. Where two headings read alike, the source gives them in different places.
# Assays:
# HBV = test: Anti-HBV activity: intracellular HBV DNA by quantitative PCR in HepG2.2.15 cells; type: cell-based; settings: Hepatitis B virus, read-out: EC50 (50% effective concentration), anti-HBV activity
# Protocol: Anti-HBV activity was evaluated by quantitative PCR for determining the amount of HBV DNA in cells on the seventh day after the addition of the agent, using the HepG2.2.15 cell line of HBV-producing cells obtained by introducing a gene having a length twice that of the HBV genome into the human liver cancer cell line HepG2. For PCR of HBV DNA, a forward primer (HBV-S190F; 5′-GCT CGT OTT ACA GGC GGG-3′: SEQ ID NO: 1) and a reverse primer (HBV-S703R; 5′-GAA CCA CTG AAC AAA TOG CAC TAG TA-3′: SEQ ID NO: 2) were used. PCR was performed by carrying out a reaction at 95° C. for 10 sec, 62° C. for 10 sec, and 72° C. for 30 sec for 35 cycles.
# Specifically, HepG2.2.15 cells were seeded at a concentration of 1×10^5 cells/well. 24 hours later, the compounds of Example 1 and Comparative Example 1 were diluted to have a concentration of 0, 0.49, 0.97, 1.95, 3.90, 7.81, 15.6, 31.3, 62.5, 125, 250, 500, and 1000 nM, and added to the cells. After the cells were cultured for 7 days, each cytoplasmic compartment was collected, and DNA was purified by phenol-chloroform extraction. 20 ng of the purified DNA was used to measure the amount of intracellular HBV DNA by quantitative PCR.
# The EC50 (50% effective concentration) was calculated from a graph showing the relationship between the concentration of the compound and anti-HBV activity.
# [1] = Cytotoxicity test (WST-1) in HepG2 NTCP-myc cells; type: cell-based; settings: human, 7 days culture, read-out: CC50 (50% cytotoxic concentration)
# Protocol: HepG2 NTCP-myc cells were seeded at a concentration of 2×10^4 cells/well. 24 hours later, the compound of Example 1 was diluted to have a concentration of 0, 0.49, 0.97, 1.95, 3.90, 7.81, 15.6, 31.3, 62.5, 125, 250, 500, and 1000 nM, and added to the cells. The HepG2 NTCP-myc cells were cultured for 7 days. After the culture, 10 μl of Premix WST-1 Cell Proliferation Assay System (TaKaRa) was added, and the cells were cultured at 37° C. for 2 hours. Thereafter, absorbance was determined at 450 nm using a microplate reader.
# The CC50 (50% cytotoxic concentration) was calculated from a graph showing the relationship between the concentration of the compound and cytotoxicity.
# [2] = 168 h, HepG2.2.15 cells, intracellular HBV DNA, day 7 after addition
SMILES,pEC50 (HBV; [2]),CC50 at 7 days [1],"pEC50 (HBV; HepG2.2.15, 168 h)"
"OC[C@H]1O[C@@H](n2cnc3c(Cl)nc(Cl)nc32)[C@@H](F)[C@@H]1O [Comparative Example 1, 2,6-dichloro-9-((2R,3S,4R,5R)-3-fluoro-4-hydroxy-5-(hydroxymethyl)tetrahydrofuran-2-yl)-9H-purine, reference compound]",< 5.00,,
"Nc1nc(Cl)c2ncn([C@@H]3O[C@H](CO)C(O)C3F)c2n1 (stereo partly drawn) [Example 1, 9-(2′-deoxy-2′-fluoro-β-D-arabinofuranos-1′-yl)-2-amino-6-chloropurine]",7.93,> 500 µM,
"Nc1nc(F)c2ncn([C@@H]3O[C@H](CO)C(O)C3F)c2n1 (stereo partly drawn) [Example 2, 9-(2′-deoxy-2′-fluoro-β-D-arabinofuranos-1′-yl)-2-amino-6-fluoropurine]",6.06,337 µM,
"Nc1nc(I)c2ncn([C@@H]3O[C@H](CO)C(O)C3F)c2n1 (stereo partly drawn) [Example 3, 9-(2′-deoxy-2′-fluoro-β-D-arabinofuranos-1′-yl)-2-amino-6-]",6.00,> 500 µM,
"Nc1nc(N)c2ncn([C@@H]3O[C@H](CO)C(O)C3F)c2n1 (stereo partly drawn) [Example 4, 9-(2′-deoxy-2′-fluoro-β-D-arabinofuranos-1′-yl)-2-amino-6-aminopurine]",,> 500 µM,5.69
"COc1nc(N)nc2c1ncn2[C@@H]1O[C@H](CO)C(O)C1F (stereo partly drawn) [Example 5, 9-(2′-deoxy-2′-fluoro-β-D-arabinofuranos-1′-yl)-2-amino-6-methoxypurine]",5.79,> 500 µM,
"N#Cc1nc(N)nc2c1ncn2[C@@H]1O[C@H](CO)C(O)C1F (stereo partly drawn) [Example 6, 9-(2′-deoxy-2′-fluoro-β-D-arabinofuranos-1′-yl)-2-amino-6-cyanopurine]",6.03,> 500 µM,
